Source: publication PMC6616128, “Liquiritin, as a Natural Inhibitor of AKR1C1, Could Interfere With the Progesterone Metabolism” (Frontiers in Physiology, 2019)

Biological target: T1, AKR1C1 (Homo sapiens, UniProt Q04828)
T1 sequence (Q04828 1-323): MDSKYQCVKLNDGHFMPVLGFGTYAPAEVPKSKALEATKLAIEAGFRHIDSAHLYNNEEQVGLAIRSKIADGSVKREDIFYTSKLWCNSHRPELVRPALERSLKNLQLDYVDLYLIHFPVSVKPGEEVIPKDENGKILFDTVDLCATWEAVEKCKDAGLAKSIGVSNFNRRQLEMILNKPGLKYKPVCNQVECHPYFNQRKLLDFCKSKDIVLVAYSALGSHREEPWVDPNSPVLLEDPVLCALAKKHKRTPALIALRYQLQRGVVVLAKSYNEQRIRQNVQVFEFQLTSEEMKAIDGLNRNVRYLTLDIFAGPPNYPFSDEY
Experiment: Enzyme activity (NADPH) assay with s-tetralol, recombinant GST-AKR1C1;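 note: GST-fused AKR1C1 expressed in E. coli and purified by glutathione affinity, control wells received DMSO instead of compound, duplicate samples from a single experiment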
Assay type: biochemical
Parameters: made in house; host or cells: Escherichia coli JM109
Conditions: 2 μM compound, Supplementary Table 1; for slope: CON 0.0122; for enzyme activity: CON 192.295568; for remaining activity at 2 µM / ratio (activity relative to CON): CON = 1; for remaining activity at 2 µM: read-out: ratio (activity relative to CON); for inhibition at 2 µM: read-out: % inhibition
Protocol: GST-tagged recombinant AKR1C isoforms expressed JM109 was grown in Luria-Bertani broth (100 μg⋅ml-1 ampicillin, pH = 7.0) at 37°C with orbital shaking at 220 rpm. When cells achieved an OD600 nm between 0.4 and 0.6, 0.3 mM final concentration of isopropyl β-D-1-thiogalactopyranoside (IPTG) was added to the cultures and incubated for an additional 12 h at 25°C. Cells were harvested by centrifugation at 8000 g for 10 min, and the cell pellets were stored at -80°C for storage. The pellets were resuspended in 1 × PBS, pH = 7.4 and lysed by ultrasonication at ice-cold temperature using an UH-03 union instrument. The purification of glutathione-S-transferase (GST)-fusion AKR1C1, AKR1C2, and AKR1C3 were then carried out using ÄKTA systems from GE Healthcare as described in Handbook. The recombinant proteins were eluted in 50 mM Tris–HCl (pH = 8.0) with 20 mM reduced glutathione, fresh preparedly. Protein concentrations were determined using the Bradford protein assay kit. All proteins were aliquoted and stored at -80°C containing 20% glycerol.
To screen for the indicated inhibitor, the assay mixture was added with additional DMSO or 2 μM compounds. […] The inhibition patterns were determined by fitting initial velocity and inhibitor concentration into inhibition models using Graphpad Prism 6.0. All inhibition data were obtained from single experiments, with samples conducted in duplicate.
Firstly, we overexpressed recombinant human AKR1C in E. coli in the form of a GST-fusion protein, and then purified it by affinity chromatography on glutathione-Sepharose.
To screen for the inhibitors of AKR1C1, we developed a readily accessible indirect NADPH generating-based assay that can be used for high-throughput inhibitors screening. […] Wells were included containing enzyme and no inhibitor or 2 μM inhibitor.

Row | Molecule | slope | enzyme activity [nmol/min/mg] | remaining activity at 2 µM [%] | inhibition at 2 µM [%] | % inhibition [%] | ratio (activity relative to CON)
1 | CC(C)=CCOc1c2ccoc2cc2oc(=O)ccc12 [Isoimperatorin] | 0.0108 | 170.1838 | 88.5 | 11.5 | – | –
2 | O=c1ccc2cc3ccoc3cc2o1 [Psoralen] | 0.0116 | 182.8834 | 95.1 | 4.89 | – | –
3 | Oc1cc(O)c2c(c1)O[C@H](c1cc(O)c(O)c(O)c1)[C@H](O)C2 [(−)-Epigallocatechin] | 0.0131 | 206.076 | – | – | -7.17 | 1.0717
4 | CC(C)=CC[C@@H](O)C1=CC(=O)c2c(O)ccc(O)c2C1=O [Shikonin] | 0.0134 | 210.4443 | 109 | -9.44 | – | –
5 | COc1cc2c(c(OC)c1OC)-c1c(cc(OC)c(OC)c1OC)C[C@](C)(O)[C@@H](C)C2 [Schisandrol A] | 0.0137 | 215.8934 | – | – | -12.27 | 1.1227
6 | O=C(O[C@@H]1Cc2c(O)cc(O)cc2O[C@@H]1c1ccc(O)c(O)c1)c1cc(O)c(O)c(O)c1 [(−)-Epicatechin gallate] | 0.00702 | 110.6488 | – | – | 42.46 | 0.5754
7 | O=c1c(-c2ccc(O)cc2)coc2cc(O[C@@H]3O[C@H](CO)[C@@H](O)[C@H](O)[C@H]3O)ccc12 [Daidzin] | 0.013 | 204.9952 | 107 | -6.6 | – | –
8 | COc1ccc(-c2oc3cc(O)cc(O)c3c(=O)c2O)cc1 [Kaempferide] | 0.0115 | 181.9828 | 94.6 | 5.36 | – | –
9 | C[C@H]1O[C@@H](O[C@H]2CC[C@@]3(C)[C@@H](CC[C@]4(C)[C@@H]3C=C[C@]35OC[C@@]6(CCC(C)(C)C[C@H]63)[C@@H](O)C[C@]54C)[C@]2(C)CO)[C@H](O)[C@@H](O[C@@H]2O[C@H](CO)[C@@H](O)[C@H](O)[C@H]2O)[C@H]1O [Saikosaponin A] | 0.0115 | 181.6675 | 94.5 | 5.53 | – | –
10 | Ginkgolide C | 0.008309 | 130.9591 | – | – | 31.9 | 0.681
11 | COc1ccc2cc1Oc1ccc(cc1)C[C@H]1c3cc(c(OC)cc3CCN1C)Oc1c(O)c(OC)cc3c1[C@H](C2)N(C)CC3 [Fangchinoline] | 0.0139 | 219.4962 | 114 | -14.2 | – | –
12 | C[C@@H]1O[C@@H](O[C@@H]2[C@@H](O)[C@H](OCCc3ccc(O)c(O)c3)O[C@H](CO)[C@H]2OC(=O)/C=C/c2ccc(O)c(O)c2)[C@H](O)[C@H](O)[C@H]1O [Acteoside] | 0.0123 | 194.5022 | 101 | -1.15 | – | –
13 | C=C1C(=O)O[C@@H]2/C=C(\C)CC/C=C(\C)CC[C@@H]12 [Costundide] | 0.007263 | 114.4767 | – | – | 40.47 | 0.5953
14 | (+)-Catechin hydrate | 0.0132 | 207.427 | – | – | -7.87 | 1.0787
15 | Pseuginsenoside F11 | 0.0116 | 183.1536 | – | – | 4.75 | 0.9525
16 | COc1ccc(-c2cc(=O)c3c(OC)c(OC)c(OC)c(OC)c3o2)cc1OC [Nobiletin] | 0.0127 | 200.1315 | 104 | -4.07 | – | –
17 | COc1c2ccoc2cc2oc(=O)ccc12 [5-Methoxypsoralen] | 0.0121 | 190.1339 | 98.9 | 1.12 | – | –
18 | C[C@@H]1C(=O)O[C@H]2C[C@@]34[C@H]5C[C@@H](C(C)(C)C)[C@]36[C@@H](OC(=O)[C@@H]6O)O[C@@]4(C(=O)O5)[C@]21O [Ginkgolide A] | 0.008406 | 132.4903 | 68.9 | 31.1 | – | –
19 | Salvianolic acid B | 0.008371 | 131.9499 | – | – | 31.38 | 0.6862

Row | Molecule | slope | enzyme activity [nmol/min/mg] | remaining activity at 2 µM [%] | inhibition at 2 µM [%] | % inhibition [%] | ratio (activity relative to CON)
20 | COc1cc2c(cc1CC=C(C)C)C(=O)C[C@@H](c1ccc(O)cc1)O2 [Bavachinin A] | 0.009203 | 145.0548 | 75.4 | 24.6 | – | –
21 | Echinacoside | 0.0131 | 205.9859 | – | – | -7.12 | 1.0712
22 | O=C(O[C@@H]1Cc2c(O)cc(O)cc2O[C@@H]1c1cc(O)c(O)c(O)c1)c1cc(O)c(O)c(O)c1 [(−)-Epigallocatechin gallate] | 0.0121 | 191.3949 | 99.5 | 0.47 | – | –
23 | COc1cc2c(c(OC)c1OC)-c1c(cc(OC)c(OC)c1OC)C[C@H](C)[C@H](C)C2 [Schisandrin A] | 0.0133 | 209.2284 | 109 | -8.81 | – | –
24 | Oc1cc(O)c2c(c1)O[C@H](c1ccc(O)c(O)c1)[C@H](O)C2 [Epicatechin] | 0.0136 | 214.5874 | 112 | -11.6 | – | –
25 | O=C(/C=C/c1ccc(O)cc1)CC(=O)/C=C/c1ccc(O)cc1 [Bisdemethoxycurcumin] | 0.0114 | 180.2715 | 93.8 | 6.25 | – | –
26 | COc1cc2c(cc1O)CC[n+]1cc3c(OC)c(OC)ccc3cc1-2.[Cl-] [Jatrorrhizine Hydrochloride] | 0.0127 | 200.7169 | – | – | -4.38 | 1.0438
27 | COc1cc(C(=O)O[C@H]2[C@@H]3C=CO[C@@H](O[C@@H]4O[C@H](CO)[C@@H](O)[C@H](O)[C@H]4O)[C@@H]3[C@@]3(CO)O[C@@H]23)ccc1O [Picroside Ⅱ] | 0.006957 | 109.658 | 57 | 43 | – | –
28 | COc1cc2c(=O)c(-c3ccc(O)cc3)coc2cc1O[C@@H]1O[C@H](CO)[C@@H](O)[C@H](O)[C@H]1O [Glycitin] | 0.00436 | 68.722 | – | – | 64.26 | 0.3574
29 | COc1ccc2c(c1)CC=C(CO)c1cc3c(cc1-2)OCO3 [Tenuifolin] | 0.007214 | 113.7111 | 59.1 | 40.9 | – | –
30 | Ginkgolide B | 0.007969 | 125.6001 | – | – | 34.68 | 0.6532
31 | C[C@]12C[C@@H](O)[C@@H]3C[C@@]1(O[C@@H]1O[C@H](CO)[C@@H](O)[C@H](O)[C@H]1O)[C@@]3(COC(=O)c1ccccc1)C(=O)O2 [Albiflorin] | 0.0129 | 202.8786 | – | – | -5.5 | 1.055
32 | COc1cc2c(=O)c(-c3ccc(O)cc3)coc2cc1O [Glycitein] | 0.0086 | 135.5526 | 70.5 | 29.5 | – | –
33 | Oc1cc(O)c2c(c1)O[C@H](c1cc(O)c(O)c(O)c1)[C@H](O)C2 [Epigallocatechin] | 0.0131 | 206.6164 | 107 | -7.45 | – | –
34 | COc1ccc(-c2coc3cc(O)ccc3c2=O)cc1O [Calycosin] | 0.0116 | 183.0185 | 95.2 | 4.82 | – | –
35 | CC1(C)C=Cc2c(ccc3c2OC[C@@H](c2ccc(O)cc2O)C3)O1 [Glabridin] | 0.0136 | 215.1279 | 112 | -11.9 | – | –
36 | C[C@@H]1O[C@@H](Oc2c(-c3ccc(O)c(O)c3)oc3cc(O)cc(O)c3c2=O)[C@H](O)[C@H](O)[C@H]1O [Quercitrin] | 0.0114 | 180.0013 | 93.6 | 6.39 | – | –
37 | COc1c2c(cc3oc(CO[C@@H]4O[C@H](CO)[C@@H](O)[C@H](O)[C@H]4O)cc(=O)c13)O[C@H](C(C)(C)O)C2 [Prim-O-glucosylcimifugin] | 0.0124 | 195.2678 | – | – | -1.55 | 1.0155
38 | O=c1c(O)c(-c2ccccc2)oc2cc(O)cc(O)c12 [3,5,7-Trihydroxyflavone] | 0.00928 | 146.2707 | 76.1 | 23.9 | – | –
